Experimental data published in US11834453B2, “Substituted pyrimido[5,4-d]pyrimidines as HER2 inhibitors” (Array BioPharma Inc., priority 2020, dated 2023).
Like-named read-outs stand apart in the source and are kept apart here.

Key:
[1] = biological target: ErbB2 insYVMA (HER2-YVMA, SEQ ID NO: 2) (Homo sapiens, UniProt P04626, INS775YVMA/P1170A); assay: biochemical; settings: ErbB2 insYVMA enzyme assay
ErbB2 WT = ErbB2 WT (Homo sapiens (Human), UniProt P04626); assay: ErbB enzyme assay (CisBio HTRF KinEASE-TK), Assay 2; assay type: biochemical
Procedure, shortened: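 ErbB2 phosphorylates 250 nM biotin-TK substrate at 1 mM ATP in 25 mM HEPES pH 7.4, 10 mM MgCl2, 0.01% Triton X-100 and 2% DMSO, for 30 min at 22 °C. Product is detected by HTRF with Sa-XL665 and TK-Ab-Cryptate. Percent of control is set by DMSO-only wells and pre-quenched wells.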

EGFR = EGFR (Homo sapiens (Human), UniProt P00533); assay: ErbB enzyme assay (CisBio HTRF KinEASE-TK), Assay 3; assay type: biochemical
Procedure, shortened: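 Inhibition is measured as reduced peptide phosphorylation by HTRF KinEASE-TK at 1 mM ATP and 250 nM substrate, 30 min at 22 °C. Values are IC50s from a 4-parameter logistic fit.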

[2] = biological target: ErbB2 with Exon 20 YVMA insertion (HER2-YVMA) (Homo sapiens (Human), UniProt P04626, INS775YVMA); assay: Cellular phosphorylation assay, constitutive ErbB2 phosphorylation (Y1196) in engineered NIH 3T3 cells, Assay 4; assay type: cell-based
Procedure, shortened: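 Engineered NIH 3T3 cells expressing HER2-YVMA treated with compounds 1 h at 37 °C, then formaldehyde-fixed and methanol-permeabilized. pErbB2 Y1196 detected by in-cell infrared immunofluorescence, normalized to GAPDH. IC50 from the normalized curves.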

EGFR wild type (EGFR WT) = EGFR wild type (EGFR WT) (Homo sapiens (Human), UniProt P00533); assay: Cellular phosphorylation assay, EGF-stimulated EGFR phosphorylation in engineered NIH 3T3 cells, Phospho-EGFR DuoSet IC ELISA, Assay 5; assay type: cell-based
Procedure, shortened: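 NIH 3T3 cells expressing EGFR WT (20,000/well, attached overnight) were exposed to serially diluted compound for 1 h at 37 °C, then stimulated with 100 ng/ml rEGF for 10 min. Phospho-EGFR in lysates measured by sandwich ELISA optical density; IC50 from curves.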

MDR1 (P-gp) = MDR1 (P-gp) (Homo sapiens (Human), UniProt P08183); assay: MDR1 transfected MDCKII canine Mdr1 knockout permeability/efflux, Assay 7; settings: dog, MDCK-MDR1
Chain of MDR1 (P-gp) (P08183 whole entry): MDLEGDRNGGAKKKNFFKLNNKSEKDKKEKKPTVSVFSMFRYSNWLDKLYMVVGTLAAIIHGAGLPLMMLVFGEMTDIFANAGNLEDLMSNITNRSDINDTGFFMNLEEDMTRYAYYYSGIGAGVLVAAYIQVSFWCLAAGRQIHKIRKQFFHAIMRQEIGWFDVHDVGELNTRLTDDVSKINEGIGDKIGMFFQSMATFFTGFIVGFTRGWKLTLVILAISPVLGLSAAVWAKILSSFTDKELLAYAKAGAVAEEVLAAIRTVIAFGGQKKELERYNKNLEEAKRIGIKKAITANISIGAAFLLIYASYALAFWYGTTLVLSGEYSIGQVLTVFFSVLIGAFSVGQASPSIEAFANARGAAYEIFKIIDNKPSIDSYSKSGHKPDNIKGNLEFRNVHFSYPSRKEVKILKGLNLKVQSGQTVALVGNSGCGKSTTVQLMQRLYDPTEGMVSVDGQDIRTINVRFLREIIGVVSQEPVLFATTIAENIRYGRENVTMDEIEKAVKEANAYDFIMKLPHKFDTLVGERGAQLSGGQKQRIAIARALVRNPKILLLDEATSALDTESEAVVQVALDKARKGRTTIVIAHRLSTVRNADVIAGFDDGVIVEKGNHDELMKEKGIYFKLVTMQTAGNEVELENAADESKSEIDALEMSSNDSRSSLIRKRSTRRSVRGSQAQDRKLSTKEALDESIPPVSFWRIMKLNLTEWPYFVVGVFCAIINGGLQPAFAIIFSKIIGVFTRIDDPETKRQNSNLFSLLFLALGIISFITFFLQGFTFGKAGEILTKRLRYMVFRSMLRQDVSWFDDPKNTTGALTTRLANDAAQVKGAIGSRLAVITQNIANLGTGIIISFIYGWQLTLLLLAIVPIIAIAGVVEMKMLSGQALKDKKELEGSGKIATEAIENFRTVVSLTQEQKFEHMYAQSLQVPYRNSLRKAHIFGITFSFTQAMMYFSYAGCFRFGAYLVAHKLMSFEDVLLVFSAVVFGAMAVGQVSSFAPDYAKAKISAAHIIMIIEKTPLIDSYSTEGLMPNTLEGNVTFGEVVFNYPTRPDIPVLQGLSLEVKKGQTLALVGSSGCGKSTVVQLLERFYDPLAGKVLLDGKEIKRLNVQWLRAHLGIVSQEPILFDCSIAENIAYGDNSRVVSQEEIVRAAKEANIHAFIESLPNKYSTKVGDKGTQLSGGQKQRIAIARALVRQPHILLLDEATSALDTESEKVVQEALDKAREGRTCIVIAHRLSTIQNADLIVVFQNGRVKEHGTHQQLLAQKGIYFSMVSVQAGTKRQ

Chain of ErbB2 insYVMA (HER2-YVMA, SEQ ID NO: 2) (P04626 with tags, fused parts or gaps INS775YVMA/P1170A limits assumed): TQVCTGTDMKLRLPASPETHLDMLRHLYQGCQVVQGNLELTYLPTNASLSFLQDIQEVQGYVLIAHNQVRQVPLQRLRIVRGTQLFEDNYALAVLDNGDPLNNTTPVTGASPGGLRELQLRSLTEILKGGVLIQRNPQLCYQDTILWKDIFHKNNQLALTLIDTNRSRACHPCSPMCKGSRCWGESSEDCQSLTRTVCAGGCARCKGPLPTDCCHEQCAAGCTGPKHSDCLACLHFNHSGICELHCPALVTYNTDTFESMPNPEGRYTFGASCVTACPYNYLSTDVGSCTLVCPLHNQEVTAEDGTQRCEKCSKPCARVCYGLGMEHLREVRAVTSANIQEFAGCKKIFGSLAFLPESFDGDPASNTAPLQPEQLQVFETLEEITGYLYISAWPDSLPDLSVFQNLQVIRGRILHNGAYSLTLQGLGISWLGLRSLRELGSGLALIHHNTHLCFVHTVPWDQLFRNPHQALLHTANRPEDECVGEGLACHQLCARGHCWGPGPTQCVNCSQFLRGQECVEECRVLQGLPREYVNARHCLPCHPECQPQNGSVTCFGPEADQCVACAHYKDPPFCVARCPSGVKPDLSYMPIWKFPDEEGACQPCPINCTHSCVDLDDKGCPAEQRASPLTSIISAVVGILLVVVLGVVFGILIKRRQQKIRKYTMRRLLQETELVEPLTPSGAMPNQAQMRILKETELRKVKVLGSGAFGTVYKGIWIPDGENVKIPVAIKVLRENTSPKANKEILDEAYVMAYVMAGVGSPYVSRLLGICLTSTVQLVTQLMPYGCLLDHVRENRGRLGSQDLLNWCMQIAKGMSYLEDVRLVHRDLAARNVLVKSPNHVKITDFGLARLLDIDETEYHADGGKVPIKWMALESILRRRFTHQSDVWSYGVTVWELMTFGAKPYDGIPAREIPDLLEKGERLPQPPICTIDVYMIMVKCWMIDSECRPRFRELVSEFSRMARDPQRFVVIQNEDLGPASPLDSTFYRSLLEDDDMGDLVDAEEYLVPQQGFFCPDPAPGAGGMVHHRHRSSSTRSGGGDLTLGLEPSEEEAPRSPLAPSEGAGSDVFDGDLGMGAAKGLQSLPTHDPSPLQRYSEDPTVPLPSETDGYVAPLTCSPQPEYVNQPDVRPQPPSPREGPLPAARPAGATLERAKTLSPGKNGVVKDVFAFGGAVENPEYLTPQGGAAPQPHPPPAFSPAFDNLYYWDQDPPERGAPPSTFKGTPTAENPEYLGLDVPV
Chain of ErbB2 with Exon 20 YVMA insertion (HER2-YVMA) (P04626 other isoform, or with tags, fused parts or gaps ins YVMA behind 775): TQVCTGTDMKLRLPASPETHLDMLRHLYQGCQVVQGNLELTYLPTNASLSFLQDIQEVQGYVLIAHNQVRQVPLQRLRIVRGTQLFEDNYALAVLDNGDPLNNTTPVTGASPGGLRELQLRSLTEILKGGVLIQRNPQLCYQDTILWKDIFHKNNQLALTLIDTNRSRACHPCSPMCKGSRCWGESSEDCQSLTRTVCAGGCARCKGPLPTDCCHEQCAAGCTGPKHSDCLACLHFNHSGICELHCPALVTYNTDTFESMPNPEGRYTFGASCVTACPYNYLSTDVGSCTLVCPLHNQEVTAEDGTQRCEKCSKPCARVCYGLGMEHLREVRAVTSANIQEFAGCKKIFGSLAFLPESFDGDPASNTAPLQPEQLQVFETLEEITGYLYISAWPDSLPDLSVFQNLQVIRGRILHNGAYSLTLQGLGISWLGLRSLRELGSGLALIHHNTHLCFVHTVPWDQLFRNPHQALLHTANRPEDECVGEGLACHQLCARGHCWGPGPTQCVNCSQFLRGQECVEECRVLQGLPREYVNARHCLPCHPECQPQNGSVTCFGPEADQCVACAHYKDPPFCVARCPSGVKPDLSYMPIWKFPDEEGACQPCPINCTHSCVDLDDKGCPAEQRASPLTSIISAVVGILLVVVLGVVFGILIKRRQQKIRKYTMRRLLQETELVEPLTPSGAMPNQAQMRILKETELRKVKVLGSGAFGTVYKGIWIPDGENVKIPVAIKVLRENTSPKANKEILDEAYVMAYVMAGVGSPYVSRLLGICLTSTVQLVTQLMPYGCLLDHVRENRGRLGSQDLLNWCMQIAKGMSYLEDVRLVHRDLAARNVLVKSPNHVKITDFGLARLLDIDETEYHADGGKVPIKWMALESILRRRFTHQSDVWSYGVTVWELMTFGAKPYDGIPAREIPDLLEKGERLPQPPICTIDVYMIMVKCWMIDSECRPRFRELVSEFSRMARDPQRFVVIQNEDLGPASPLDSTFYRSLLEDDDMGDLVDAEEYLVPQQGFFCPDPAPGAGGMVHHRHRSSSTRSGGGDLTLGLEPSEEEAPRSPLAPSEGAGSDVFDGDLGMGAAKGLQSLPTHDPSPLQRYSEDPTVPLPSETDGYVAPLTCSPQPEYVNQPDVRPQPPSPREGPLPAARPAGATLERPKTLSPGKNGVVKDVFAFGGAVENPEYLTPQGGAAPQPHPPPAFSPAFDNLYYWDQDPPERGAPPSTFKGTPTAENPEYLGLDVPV
Chain of EGFR (P00533 25-1210): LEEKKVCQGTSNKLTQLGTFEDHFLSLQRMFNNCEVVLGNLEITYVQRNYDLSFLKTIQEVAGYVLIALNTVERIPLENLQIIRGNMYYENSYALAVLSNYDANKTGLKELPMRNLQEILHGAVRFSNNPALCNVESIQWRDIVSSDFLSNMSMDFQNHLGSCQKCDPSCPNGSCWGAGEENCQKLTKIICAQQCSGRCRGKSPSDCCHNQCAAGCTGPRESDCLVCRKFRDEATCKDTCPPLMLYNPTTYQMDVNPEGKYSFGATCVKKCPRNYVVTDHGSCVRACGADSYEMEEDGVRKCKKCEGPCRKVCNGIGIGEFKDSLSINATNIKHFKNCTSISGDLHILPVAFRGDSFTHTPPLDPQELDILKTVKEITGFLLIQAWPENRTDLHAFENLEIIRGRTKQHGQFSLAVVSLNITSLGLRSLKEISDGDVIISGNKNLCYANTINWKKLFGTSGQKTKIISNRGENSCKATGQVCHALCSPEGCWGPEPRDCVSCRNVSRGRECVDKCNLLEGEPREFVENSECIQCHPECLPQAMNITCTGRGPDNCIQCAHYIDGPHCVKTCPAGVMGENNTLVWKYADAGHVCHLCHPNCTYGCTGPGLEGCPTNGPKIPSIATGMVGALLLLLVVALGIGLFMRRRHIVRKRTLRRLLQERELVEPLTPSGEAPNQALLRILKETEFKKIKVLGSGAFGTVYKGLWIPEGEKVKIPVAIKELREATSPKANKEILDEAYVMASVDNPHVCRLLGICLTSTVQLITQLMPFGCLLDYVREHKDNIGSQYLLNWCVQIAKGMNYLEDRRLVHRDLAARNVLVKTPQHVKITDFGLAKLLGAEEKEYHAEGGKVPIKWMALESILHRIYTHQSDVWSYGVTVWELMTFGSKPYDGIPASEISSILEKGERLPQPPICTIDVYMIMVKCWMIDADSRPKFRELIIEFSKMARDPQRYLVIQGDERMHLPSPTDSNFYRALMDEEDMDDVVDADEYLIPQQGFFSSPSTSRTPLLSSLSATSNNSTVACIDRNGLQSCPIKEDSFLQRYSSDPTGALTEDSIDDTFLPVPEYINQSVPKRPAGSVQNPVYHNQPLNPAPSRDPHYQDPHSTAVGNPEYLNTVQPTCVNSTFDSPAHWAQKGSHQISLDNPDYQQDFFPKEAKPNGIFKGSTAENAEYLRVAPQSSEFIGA

| SMILES | IC50 ([1]; read-out: Assay 1 IC50) | IC50 (ErbB2 WT) | IC50 (EGFR) | IC50 [2] | IC50 (EGFR wild type (EGFR WT)) | efflux ratio at 2 h, 1 μM (MDR1 (P-gp)) | IC50 ([1]; Assay 1 IC50 (nM)) |
| --- | --- | --- | --- | --- | --- | --- | --- |
| Cc1cc(Nc2ncnc3cnc(N4C[C@H]5CCS(=O)(=O)[C@H]5C4)nc23)ccc1Oc1ccc2c(c1)ncn2C (racemic) [Example 92, rac-(3aR,6aR)-5-(8-((3-methyl-4-((1-methyl-1H-benzo[d]imidazol-5-yl)oxy)phenyl)amino)pyrimido[5,4-d]pyrimidin-2-yl)hexahydro-2H-thieno[2,3-c]pyrrole 1,1-dioxide] | 10.7 nM | 18.9 nM | 8.78 µM | 23.3 nM | ≥ 5 µM | 3.8 | – |
| CO[C@@H]1CN(c2ncc3ncnc(Nc4ccc(Oc5ccc6c(c5)ncn6C)c(C)c4)c3n2)C[C@H]1O (racemic) [Example 107, ±(3R,4R)-4-methoxy-1-(8-((3-methyl-4-((1-methyl-1H-benzo[d]imidazol-5-yl)oxy)phenyl)amino)pyrimido[5,4-d]pyrimidin-2-yl)pyrrolidin-3-ol] | 30.8 nM | 15.5 nM | ≥ 10 µM | 31.3 nM | ≥ 5 µM | 3.2 | – |
| Cc1cc(Nc2ncnc3cnc(N(C)[C@@H]4CNC[C@@H]4F)nc23)ccc1Oc1ccc2c(c1)ncn2C [Example 94, N2-((3R,4S)-4-fluoropyrrolidin-3-yl)-N2-methyl-N8-(3-methyl-4-((1-methyl-1H-benzo[d]imidazol-5-yl)oxy)phenyl)pyrimido[5,4-d]pyrimidine-2,8-diamine] | 21.3 nM | 31.3 nM | 4.36 µM | 20.3 nM | ≥ 5 µM | 12 | – |
| Cc1c(Oc2ccc3c(c2)ncn3C)ccc(Nc2ncnc3cnc(N4CC[C@](C)(O)C4)nc23)c1F [Example 97, (S)-1-(8-((2-fluoro-3-methyl-4-((1-methyl-1H-benzo[d]imidazol-5-yl)oxy)phenyl)amino)pyrimido[5,4-d]pyrimidin-2-yl)-3-methylpyrrolidin-3-ol] | 14.2 nM | 31 nM | ≥ 10 µM | 47.5 nM | ≥ 5 µM | 2 | – |
| CN(CCC(C)(C)O)c1ncc2ncnc(Nc3ccc(Oc4ccn5ncnc5c4)c(Cl)c3)c2n1 [Example 101, 4-((8-((4-([1,2,4]triazolo[1,5-a]pyridin-7-yloxy)-3-chlorophenyl)amino)pyrimido[5,4-d]pyrimidin-2-yl)(methyl)amino)-2-methylbutan-2-ol] | 15.4 nM | 14.7 nM | ≥ 10 µM | 8.2 nM | ≥ 5 µM | 1.5 | – |
| Cn1cnc2cc(Oc3ccc(Nc4ncnc5cnc(N6CCC6)nc45)cc3Cl)ccc21.O=C(O)C(F)(F)F [Example 148, 6-(azetidin-1-yl)-N-(3-chloro-4-((1-methyl-1H-benzo[d]imidazol-5-yl)oxy)phenyl)pyrimido[5,4-d]pyrimidin-4-amine 2,2,2-trifluoroacetate] | – | 34 nM | ≥ 10 µM | 13 nM | ≥ 5 µM | 1.3 | 24.3 nM |
| Cn1cnc2cc(Oc3ccc(Nc4ncnc5cnc(N6CC7C8CCC(O8)C7C6)nc45)cc3Cl)ccc21.O=C(O)C(F)(F)F (stereo not drawn) [Example 149, N-(3-chloro-4-((1-methyl-1H-benzo[d]imidazol-5-yl)oxy)phenyl)-6-(octahydro-2H-4,7-epoxyisoindol-2-yl)pyrimido[5,4-d]pyrimidin-4-amine] | – | 102 nM | ≥ 10 µM | 26.5 nM | ≥ 5 µM | 1 | 99 nM |
| Cn1cnc2cc(Oc3ccc(Nc4ncnc5cnc(N6CCN7CCOC[C@H]7C6)nc45)cc3Cl)ccc21.O=C(O)C(F)(F)F.O=C(O)C(F)(F)F [Example 150, (R)—N-(3-chloro-4-((1-methyl-1H-benzo[d]imidazol-5-yl)oxy)phenyl)-6-(hexahydropyrazino[2,1-c][1,4]oxazin-8(1H)-yl)pyrimido[5,4-d]pyrimidin-4-amine bis(2,2,2-trifluoroacetate)] | – | 22.3 nM | ≥ 10 µM | 9.1 nM | ≥ 5 µM | 2.2 | 32 nM |
| Cn1cnc2cc(Oc3ccc(Nc4ncnc5cnc(N6CCN7CCOC[C@@H]7C6)nc45)cc3Cl)ccc21.O=C(O)C(F)(F)F.O=C(O)C(F)(F)F [Example 151, (S)—N-(3-chloro-4-((1-methyl-1H-benzo[d]imidazol-5-yl)oxy)phenyl)-6-(hexahydropyrazino[2,1-c][1,4]oxazin-8(1H)-yl)pyrimido[5,4-d]pyrimidin-4-amine bis(2,2,2-trifluoroacetate)] | – | 61.4 nM | ≥ 10 µM | 18.8 nM | ≥ 5 µM | 1.2 | 24.6 nM |
| Cc1cc(Nc2ncnc3cnc(N4CC[C@H](F)[C@@H](O)C4)nc23)ccc1Oc1ccc2c(c1)ncn2C [Example 162, (3S,4S)-4-fluoro-1-(8-((3-methyl-4-((1-methyl-1H-benzo[d]imidazol-5-yl)oxy)phenyl)amino)pyrimido[5,4-d]pyrimidin-2-yl)piperidin-3-ol] | 19.4 nM | 31.6 nM | 7.36 µM | 36.4 nM | ≥ 5 µM | 2.8 | – |
| Cc1cc(Nc2ncnc3cnc(N(C)[C@H]4C[C@@](C)(O)C4)nc23)ccc1Oc1ccc2c(c1)ncn2C [Example 165, (1s, 3s)-1-methyl-3-(methyl(8-((3-methyl-4-((1-methyl-1H-benzo[d]imidazol-5-yl)oxy)phenyl)amino)pyrimido[5,4-d]pyrimidin-2-yl)amino)cyclobutan-1-ol] | 7.5 nM | 5.6 nM | 0.216 µM | 11.4 nM | ≥ 5 µM | 2.1 | – |
| Cc1cc(Nc2ncnc3cnc(N4C[C@@H](C)[C@H](O)C4)nc23)ccc1Oc1ccc2c(c1)ncn2C [Example 167, (3S,4R)-4-methyl-1-(8-((3-methyl-4-((1-methyl-1H-benzo[d]imidazol-5-yl)oxy)phenyl)amino)pyrimido[5,4-d]pyrimidin-2-yl)pyrrolidin-3-ol] | 17.7 nM | 34.6 nM | 9.05 µM | 24.2 nM | ≥ 5 µM | 2.8 | – |
| Cc1cc(Nc2ncnc3cnc(N4CC[C@@H](O)C4)nc23)ccc1Oc1ccc2c(c1)ncn2C [Example 169, (R)-1-(8-((3-methyl-4-((1-methyl-1H-benzo[d]imidazol-5-yl)oxy)phenyl)amino)pyrimido[5,4-d]pyrimidin-2-yl)pyrrolidin-3-ol] | 8.5 nM | 11.2 nM | 1.63 µM | 4.7 nM | ≥ 5 µM | 3.6 | – |
| Cc1cc(Nc2ncnc3cnc(N4CC[C@H](O)C4)nc23)ccc1Oc1ccc2c(c1)ncn2C [Example 174, (S)-1-(8-((3-methyl-4-((1-methyl-1H-benzo[d]imidazol-5-yl)oxy)phenyl)amino)pyrimido[5,4-d]pyrimidin-2-yl)pyrrolidin-3-ol] | 11.5 nM | 31.4 nM | 2.77 µM | 8 nM | ≥ 5 µM | 3.1 | – |
| Cc1cc(Nc2ncnc3cnc(N4CCC(CC#N)C4)nc23)ccc1Oc1ccc2c(c1)ncn2C (stereo not drawn) [Example 192, 2-(1-(8-((3-methyl-4-((1-methyl-1H-benzo[d]imidazol-5-yl)oxy)phenyl)amino)pyrimido[5,4-d]pyrimidin-2-yl)pyrrolidin-3-yl)acetonitrile] | 19.1 nM | 44.8 nM | ≥ 10 µM | 13.1 nM | ≥ 5 µM | 1.6 | – |
| Cc1cc(Nc2ncnc3cnc(N4CCNC(=O)C4)nc23)ccc1Oc1ccc2c(c1)ncn2C [Example 198, 4-(8-((3-methyl-4-((1-methyl-1H-benzo[d]imidazol-5-yl)oxy)phenyl)amino)pyrimido[5,4-d]pyrimidin-2-yl)piperazin-2-one] | 20 nM | 21.9 nM | 3.3 µM | 37.6 nM | ≥ 5 µM | 10.7 | – |
| Cc1cc(Nc2ncnc3cnc(N4CC5(CC(O)C5)C4)nc23)ccc1Oc1ccc2c(c1)ncn2C [Example 213, 2-(8-((3-methyl-4-((1-methyl-1H-benzo[d]imidazol-5-yl)oxy)phenyl)amino)pyrimido[5,4-d]pyrimidin-2-yl)-2-azaspiro[3.3]heptan-6-ol] | 19.7 nM | 33.9 nM | ≥ 10 µM | 34.1 nM | ≥ 5 µM | 2.4 | – |
